The supplement of paper PMC10307832

Assays:
Test in all cases: relative viability (nuclei count vs DMSO), 5 days (fraction); higher = more cells survive
VE-821 + Decitabine = compound: CS(=O)(=O)c1ccc(-c2cnc(N)c(C(=O)Nc3ccccc3)n2)cc1 [VE-821] + Nc1ncn([C@H]2C[C@H](O)[C@@H](CO)O2)c(=O)n1 [Decitabine] (partner 2 µM)
Procedure, shortened: (§1)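 Nuclei were stained with Hoechst during a one-step fixation (final 0.05% Triton X-100, 1% formaldehyde, 1 ug/ml Hoechst) carried out 5 days after dosing, then counted on 4× images. The cells, lung cancer lines in 1536-well plates, had been dosed by pin tool the day after seeding with one drug alone or a fixed anchor-drug dose plus five library-drug doses (not always all listed) in √10 steps. Relative viability is the nuclei count in treated wells divided by that in vehicle wells, and each value is the median of duplicate plates.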

Vismodegib + Olaparib = compound: CS(=O)(=O)c1ccc(C(=O)Nc2ccc(Cl)c(-c3ccccn3)c2)c(Cl)c1 [Vismodegib] + O=C(c1cc(Cc2n[nH]c(=O)c3ccccc23)ccc1F)N1CCN(C(=O)C2CC2)CC1 [Olaparib] (partner 8 µM)
Procedure, shortened: as §1

Ruxolitinib + Crizotinib = compound: N#CC[C@H](C1CCCC1)n1cc(-c2ncnc3[nH]ccc23)cn1 [Ruxolitinib] + C[C@@H](Oc1cc(-c2cnn(C3CCNCC3)c2)cnc1N)c1c(Cl)ccc(F)c1Cl [Crizotinib] (partner 1 µM)
Procedure, shortened: as §1

Ruxolitinib + Linsitinib = compound: N#CC[C@H](C1CCCC1)n1cc(-c2ncnc3[nH]ccc23)cn1 [Ruxolitinib] + C[C@]1(O)C[C@@H](c2nc(-c3ccc4ccc(-c5ccccc5)nc4c3)c3c(N)nccn32)C1 [Linsitinib] (partner 1 µM)
Procedure, shortened: as §1

Cell Line	relative viability (VE-821 + Decitabine; first compound 0.08 µM)	relative viability (VE-821 + Decitabine; first compound 0.253 µM)	relative viability (VE-821 + Decitabine; first compound 0.8 µM)	relative viability (VE-821 + Decitabine; first compound 2.53 µM)	relative viability (VE-821 + Decitabine; first compound 8 µM)	relative viability (Vismodegib + Olaparib; first compound 0.08 µM)	relative viability (Vismodegib + Olaparib; first compound 0.253 µM)	relative viability (Vismodegib + Olaparib; first compound 0.8 µM)	relative viability (Vismodegib + Olaparib; first compound 2.53 µM)	relative viability (Vismodegib + Olaparib; first compound 8 µM)	relative viability (Ruxolitinib + Crizotinib; first compound 0.08 µM)	relative viability (Ruxolitinib + Crizotinib; first compound 0.253 µM)	relative viability (Ruxolitinib + Crizotinib; first compound 0.8 µM)	relative viability (Ruxolitinib + Crizotinib; first compound 2.53 µM)	relative viability (Ruxolitinib + Crizotinib; first compound 8 µM)	relative viability (Ruxolitinib + Linsitinib; first compound 0.08 µM)	relative viability (Ruxolitinib + Linsitinib; first compound 0.253 µM)	relative viability (Ruxolitinib + Linsitinib; first compound 0.8 µM)	relative viability (Ruxolitinib + Linsitinib; first compound 2.53 µM)	relative viability (Ruxolitinib + Linsitinib; first compound 8 µM)
LOU-NH91	0.833	0.813	0.812	0.836	0.805	0.873	0.907	0.936	0.904	0.917	0.626	0.723	0.788	0.707	0.704	0.663	0.895	1.14	0.895	0.872
LU99A	1.01	0.763	0.881	0.801	0.395	0.306	0.278	0.292	0.267	0.247	0.588	0.655	0.532	0.612	0.519	0.549	0.499	0.541	0.554	0.499
LXF-289	0.426	0.413	0.467	0.437	0.556	1.05	1.01	1.11	1.02	0.94	0.777	0.805	0.781	0.757	0.737	0.919	0.972	0.858	0.892	0.813
NCI-H23	0.304	0.35	0.289	0.36	0.245	0.321	0.277	0.26	0.296	0.409	0.457	0.527	0.71	0.43	0.488	0.579	0.694	0.799	0.485	0.612
NCI-H322M	0.693	0.639	0.752	0.793	0.553	0.753	0.679	0.695	0.704	0.776	0.9	1.27	1.01	1.1	1.09	1.05	0.9	0.997	0.91	1.17
NCI-H358	0.22	0.279	0.278	0.278	0.273	0.564	0.597	0.525	0.521	0.667	0.677	0.577	0.686	0.512	0.417	0.716	0.629	0.803	0.514	0.544
NCI-H441	0.305	0.271	0.226	0.258	0.271	0.561		0.579	0.55	0.55	0.682	0.585	0.847	0.724	0.555	0.508	0.573	0.512	0.637	0.286
NCI-H460	0.554	0.543	0.366	0.276	0.0965	0.413	0.409	0.437	0.382	0.439	0.985	1.02	1.01	0.803	0.447	0.801	0.858	0.929	0.702	0.462
NCI-H520	0.516	0.526	0.583	0.545	0.379	0.314	0.366	0.397	0.281	0.354		0.714	0.964	0.708	0.645		1.08	1.16	0.847	0.679
NCI-H596	1.08	1.08	1.04	1.12	1.09	0.749	0.488	0.653	0.706	0.844	0.994	0.98	1.19	0.919	0.912	1.24	1.18	1.09	1.11	1.11
NCI-H647	0.401	0.5	0.385	0.385	0.235	0.66	0.508	0.669	0.368	0.479	1.18	1.12	1.13	0.852	0.524	1.29	1.15	1.22	1.16	1.03
NCI-H650	0.311	0.342	0.383	0.436	0.366	0.385	0.385	0.396	0.316	0.387		0.77	0.846	0.644	0.54		0.795	1.11	0.677	0.55
NCI-H661	0.61	0.568	0.648	0.628	0.602	0.837	0.69	0.745	0.715	0.718	0.941	1.02	0.941		0.841	0.598	0.639	0.708	0.498	0.591
NCI-H727	0.865	0.799	0.952	0.916	0.751	0.66	0.683	0.76	0.724	0.749	0.93	0.799	1.1	0.832	0.962	0.283	0.272	0.237	0.228	0.427
NCI-H838	0.461	0.488	0.564	0.559	0.456	0.791	0.71	0.777	0.757	0.778	0.751	0.723	0.682	0.591	0.342	1.03	0.903	0.87	0.534	0.36
NCI-H1355	0.362	0.347	0.333	0.371	0.36	0.721	0.716	0.781	0.807	0.722	1.08	1.01	1.06	0.839	0.907	0.794	0.841	0.843	0.753	0.716
NCI-H1437	0.579	0.488	0.593	0.598	0.497	0.633	0.607	0.653	0.63	0.598	0.924	1.08	0.872	0.795	0.778	0.983	0.994	1.02	0.966	0.653

Cell Line	relative viability (VE-821 + Decitabine; first compound 0.08 µM)	relative viability (VE-821 + Decitabine; first compound 0.253 µM)	relative viability (VE-821 + Decitabine; first compound 0.8 µM)	relative viability (VE-821 + Decitabine; first compound 2.53 µM)	relative viability (VE-821 + Decitabine; first compound 8 µM)	relative viability (Vismodegib + Olaparib; first compound 0.08 µM)	relative viability (Vismodegib + Olaparib; first compound 0.253 µM)	relative viability (Vismodegib + Olaparib; first compound 0.8 µM)	relative viability (Vismodegib + Olaparib; first compound 2.53 µM)	relative viability (Vismodegib + Olaparib; first compound 8 µM)	relative viability (Ruxolitinib + Crizotinib; first compound 0.08 µM)	relative viability (Ruxolitinib + Crizotinib; first compound 0.253 µM)	relative viability (Ruxolitinib + Crizotinib; first compound 0.8 µM)	relative viability (Ruxolitinib + Crizotinib; first compound 2.53 µM)	relative viability (Ruxolitinib + Crizotinib; first compound 8 µM)	relative viability (Ruxolitinib + Linsitinib; first compound 0.08 µM)	relative viability (Ruxolitinib + Linsitinib; first compound 0.253 µM)	relative viability (Ruxolitinib + Linsitinib; first compound 0.8 µM)	relative viability (Ruxolitinib + Linsitinib; first compound 2.53 µM)	relative viability (Ruxolitinib + Linsitinib; first compound 8 µM)
NCI-H1651	0.486	0.697	0.614	0.673	0.543	0.176	0.192	0.188	0.182	0.204	0.8	0.893	0.847	0.779	0.842	0.949	0.864	1	0.929	0.964
NCI-H1666	0.698	0.702	0.786	0.753	0.688	0.679	0.747	0.727	0.732	0.749	1.03	0.974	0.986	0.878	0.909	0.739	0.949	0.933	0.776	0.902
NCI-H1734	0.585	0.473	0.515	0.522	0.448	0.574	0.515	0.605	0.59	0.672	0.66	0.721	0.795	0.633	0.559	0.852	0.752	0.794	0.8	0.821
NCI-H1755	0.734	0.754	0.866	0.867	0.831	0.863	0.884	0.897	0.843	0.852	0.87	0.897	0.887	0.784	0.476	1	0.961	0.971	0.9	0.817
NCI-H1792	0.639	0.536	0.482	0.586	0.529	0.381	0.412	0.527	0.349	0.376	1.01	0.893	0.946	0.753	0.85	0.495	0.504	0.488	0.417	0.499
NCI-H1915	0.284	0.262	0.312	0.266	0.318	0.276	0.256	0.244	0.273	0.232	0.903	0.925	1.01	0.835	0.864	1.12	1.05	1.05	1.04	1.03
NCI-H1944	0.418	0.408	0.418	0.438	0.343	0.414	0.404	0.398		0.441	0.99	0.955	0.998	0.928	1.02	1.23	1.12	1.28	1.15	1.21
NCI-H1975	0.4	0.38	0.358	0.381	0.324	0.736	0.788	0.788	0.83	0.791	1.07	1.01	1.05	0.858	0.547	1.03	1.03	1.05	0.71	0.587
NCI-H1993	0.607	0.557	0.596	0.568	0.486	0.9	1.03	1.03	1	0.963	0.785	0.801	0.873	0.61	0.935	0.785	0.783	0.779	0.801	0.796
NCI-H2009	0.381	0.413	0.425	0.413	0.398	0.679	0.655	0.699	0.662	0.724	1.1	0.996	1.12	0.769	0.832	1.21	1.23	1.28	1.02	0.904
NCI-H2023	0.249	0.259	0.205	0.194	0.13	0.496	0.448	0.519	0.44	0.541	0.533	0.574	0.746	0.704	0.719	0.689	0.589	0.722	0.683	0.672
NCI-H2085	0.539	0.528	0.778		0.538	0.724	0.816	0.775	0.74	0.712	0.844	0.921	0.857	0.784	0.711	0.875	0.888	1.01	0.836	0.685
NCI-H2087	0.381	0.286	0.309	0.363	0.275	0.582	0.594	0.607	0.594	0.508	0.928	1.07	1	0.919	0.615	0.861	1.08	0.983	0.692	0.638
NCI-H2126	0.523	0.576	0.577	0.588	0.528	0.887	0.966	0.928	0.849	0.969	0.996	1.11	1.02	1.03	0.984	0.701	0.725	0.731	0.744	0.702
NCI-H2347	0.624	0.595	0.678	0.693	0.723	0.579	0.548	0.621	0.615	0.597	0.665	0.586	0.764	0.67	0.651	0.893	0.939	1.05	0.886	0.965
NCI-H2405	0.805	0.698	0.775	0.814	0.761	0.856	0.909	0.823	0.833	0.875	0.853	0.87	0.984	0.761	0.596		0.779	1.1	0.528	0.632
